Experimental data as given in PubChem BioAssay (NCI).
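How tested: cells in 96-well plates exposed to compound for 48 hours at five concentrations. TGI marks complete inhibition of growth.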

Experiments:
Experiment in all cases: NCI tumour cell line growth inhibition, 48 h
HL-60(TB) leukemia = tested on: HL-60(TB) leukemia
MDA-MB-435 = tested on: MDA-MB-435
SK-MEL-28 melanoma = tested on: SK-MEL-28 melanoma
ACHN renal = tested on: ACHN renal
SK-MEL-2 melanoma = tested on: SK-MEL-2 melanoma
NCI-H23 lung = tested on: NCI-H23 lung
PC-3 prostate = tested on: PC-3 prostate
BT-549 breast = tested on: BT-549 breast
NCI/ADR-RES ovarian = tested on: NCI/ADR-RES ovarian
A549 NSCLC = tested on: A549 NSCLC
SNB-75 CNS = tested on: SNB-75 CNS
IGROV1 ovarian = tested on: IGROV1 ovarian
EKVX NSCLC = tested on: EKVX NSCLC
MDA-N = tested on: MDA-N
KM12 colon = tested on: KM12 colon
SF-268 CNS = tested on: SF-268 CNS
UACC-257 melanoma = tested on: UACC-257 melanoma

Row | SMILES | TGI (HL-60(TB) leukemia) | TGI (MDA-MB-435) | TGI (SK-MEL-28 melanoma) | TGI (ACHN renal) | TGI (SK-MEL-2 melanoma) | TGI (NCI-H23 lung) | TGI (PC-3 prostate) | TGI (BT-549 breast) | TGI (NCI/ADR-RES ovarian) | TGI (A549 NSCLC) | TGI (SNB-75 CNS) | TGI (IGROV1 ovarian) | TGI (EKVX NSCLC) | TGI (MDA-N) | TGI (KM12 colon) | TGI (SF-268 CNS) | TGI (UACC-257 melanoma)
1 | COc1cc([C@@H]2c3cc4c(cc3[C@@H](N=Cc3ccc(C(=O)O[C@H]5C[C@H]6OC[C@@]6(OC(C)=O)[C@H]6[C@H](OC(=O)c7ccccc7)[C@]7(O)C[C@H](OC(=O)[C@H](OC(=O)c8ccc(C=N[C@@H]9c%10cc%11c(cc%10[C@@H](c%10cc(OC)c(O)c(OC)c%10)[C@H]%10C(=O)OC[C@@H]%109)OCO%11)cc8)[C@@H](NC(=O)c8ccccc8)c8ccccc8)C(C)=C([C@@H](OC(C)=O)C(=O)[C@]56C)C7(C)C)cc3)C3COC(=O)C32)OCO4)cc(C)c1O (some centres not stated) | > 50 µM | 9.32 µM | > 50 µM | > 50 µM | > 50 µM | > 50 µM | > 27.5 µM | > 50 µM | > 50 µM | > 50 µM | > 50 µM | > 50 µM | > 35.2 µM | 7.71 µM | > 50 µM | > 50 µM | > 50 µM
2 | CCOC(=O)/C(C#N)=N\Nc1ccc(-n2c(C)nc3ccc(Br)cc3c2=O)cc1 | > 100 µM | > 100 µM | > 100 µM | > 100 µM | > 100 µM | > 100 µM | > 100 µM | > 100 µM | > 100 µM | > 100 µM | > 100 µM | > 100 µM | > 100 µM | > 100 µM | > 100 µM | > 100 µM | > 100 µM
3 | C=CCSC1=N/C(=C\c2ccco2)C(=O)N1CC=C | 60.2 µM | > 100 µM | > 100 µM | > 100 µM | > 100 µM | > 100 µM | > 100 µM | > 100 µM | > 100 µM | > 100 µM | – | > 100 µM | > 100 µM | > 100 µM | > 100 µM | > 100 µM | > 100 µM
4 | O=c1[nH]nc(Cc2ccc(Cl)cc2)n1Nc1ccccc1 | – | > 100 µM | > 100 µM | > 100 µM | > 100 µM | > 100 µM | > 100 µM | > 100 µM | > 100 µM | > 100 µM | > 100 µM | > 100 µM | > 100 µM | > 100 µM | > 100 µM | – | > 100 µM
5 | CCOC(=O)C(NC(=O)Nc1ccccc1F)(OC)C(F)(F)F (configuration not stated) | > 100 µM | > 100 µM | > 100 µM | > 100 µM | > 100 µM | > 100 µM | > 100 µM | > 100 µM | > 100 µM | > 100 µM | > 100 µM | > 100 µM | > 100 µM | > 100 µM | – | > 100 µM | > 100 µM
6 | CC(=O)N(CCc1ccccc1)C(C)(C#N)c1ccccc1 (configuration not stated) | > 100 µM | > 100 µM | > 100 µM | > 100 µM | > 100 µM | > 100 µM | > 100 µM | > 100 µM | > 100 µM | > 100 µM | > 100 µM | > 100 µM | > 100 µM | > 100 µM | > 100 µM | > 100 µM | > 100 µM
7 | c1ncc(C23C4C5C6C4C2C6C53)[nH]1 (configuration not stated) | > 100 µM | > 100 µM | > 100 µM | > 100 µM | > 100 µM | > 100 µM | > 100 µM | > 100 µM | > 100 µM | > 100 µM | > 100 µM | > 100 µM | > 100 µM | > 100 µM | > 100 µM | > 100 µM | > 100 µM
8 | O=C(Nc1ccc(Cl)cc1)C(=O)C1=C(O)c2ccccc2OC1 | > 100 µM | > 100 µM | > 100 µM | > 100 µM | > 100 µM | > 100 µM | > 100 µM | > 100 µM | > 100 µM | > 100 µM | > 100 µM | > 100 µM | > 100 µM | > 100 µM | > 100 µM | > 100 µM | > 100 µM
9 | COc1ccc2[nH]c3c(c2c1)CCc1ccccc1-3 | – | > 100 µM | > 100 µM | > 100 µM | > 100 µM | > 100 µM | > 100 µM | > 100 µM | > 100 µM | > 100 µM | 75.2 µM | > 100 µM | > 100 µM | > 100 µM | > 100 µM | > 100 µM | > 100 µM
10 | Cc1ccc(NC(=O)c2cc(S(=O)(=O)N3CCNNC3=O)c(S)cc2Cl)cc1 | > 100 µM | > 100 µM | > 100 µM | > 100 µM | > 100 µM | – | > 100 µM | 87.6 µM | > 100 µM | > 100 µM | > 100 µM | > 100 µM | > 100 µM | > 100 µM | > 100 µM | > 100 µM | > 100 µM
11 | CC(=O)Nc1ccccc1S(=O)(=O)c1c(-c2c(C)c(Cl)c(C)c(Cl)c2C)noc1C | – | > 100 µM | > 100 µM | > 100 µM | > 100 µM | > 100 µM | > 100 µM | > 100 µM | > 100 µM | > 100 µM | 34.6 µM | > 100 µM | > 100 µM | > 100 µM | > 100 µM | > 100 µM | > 100 µM
12 | Cc1[nH]c2ncn(N)c(=N)c2c1Cc1ccccc1 | > 100 µM | > 100 µM | > 100 µM | > 100 µM | > 100 µM | > 100 µM | > 100 µM | > 100 µM | > 100 µM | > 100 µM | > 100 µM | > 100 µM | > 100 µM | > 100 µM | > 100 µM | – | > 100 µM
13 | COc1cc(/C=C2\N=C(c3ccccc3)N(/N=C/c3cc4cc(C)ccc4nc3Cl)C2=O)ccc1O | 76.6 µM | 36.7 µM | > 100 µM | > 100 µM | 38.4 µM | – | 50.1 µM | > 100 µM | > 100 µM | > 100 µM | 83.9 µM | > 100 µM | > 100 µM | 32 µM | > 100 µM | > 100 µM | > 100 µM
